The results in this text go back to ChEMBL document CHEMBL6096669, “Design and synthesis of novel derivatives of bisepoxylignans as potent anti-inflammatory agents involves the modulation of the M1/M2 microglia phenotype via TLR4/NF-κB signaling pathway” (Eur J Med Chem, 2025).

Calls of active or inactive are those of the source. The calls are words filed in the database; no cut-off is given here.

A short description of data set [1]: Permeability of compound in PBS/EtOH (70:30) buffer incubated for 18 hrs by PAMPA-BBB assay. On the technique in general: In PAMPA a lipid-coated filter parts donor from acceptor wells.
The subject of data set [2] is BV-2. Description: (§1) Inhibition of LPS-induced NO production in mouse BV-2 cells at 10 uM measured after 24 hrs followed by induced with LPS for another 24 hrs by ELISA relative to control. The format is functional. On the technique in general: ELISA stands for enzyme-linked immunosorbent assay.
A short description of data set [3]: Cytotoxicity against mouse BV-2 cells assessed as cell viability at 10 uM measured after 24 hrs by MTT assay relative to control. The format is toxicity, cell-based. Particulars: read-out: Activity. A general note: Formazan colour is commonly taken as a measure of viable cells.
A short description of data set [4]: as §1. Format: functional.
In data set [5] the test system is BV-2. Description: Anti-inflammatory activity against LPS-induced mouse BV-2 cells assessed as decrease in LPS-induced Cyclooxygenase-2 mRNA expression at 20 uM incubated for 4 hrs followed by LPS induced for 12 hrs by RT-PCR analysis relative to control. The format is functional, cell-based. To be noted: time 16.0 hrs.

Turning to `CC1(C)S[C@@H]2[C@H](NC(=O)Cc3ccccc3)C(=O)N2[C@H]1C(=O)[O-].[Na+]` [PENICILLIN G SODIUM], the “log Pe” value in data set [1] is on record as -6.06.

What is called inhibition is the drop in the measured response relative to a control, in per cent. For `O=c1[nH]c2ccc(Nc3ncnc4c3ccn4Cc3cc(Cl)ccc3F)cc2[nH]1`, in the data set with BV-2 [2], the inhibition entry is “inactive”. Besides, the viability at 24 h, 10 µM in data set [3] worked out at 70.3%.

Regarding `O=c1[nH]c2ccc(Nc3ncnc4c3ccn4Cc3ccccc3)cc2[nH]1`, in data set [4], the inhibition at 10 µM is 76.6%. Moreover, the viability at 24 h, 10 µM in data set [3] was 99.7%.

Regarding `O=c1[nH]c2ccc(Nc3ncnc4c3ccn4Cc3ccc(F)c(Cl)c3)cc2[nH]1`, the inhibition result in the data set on BV-2 [2] is “inactive”. Further, the viability at 24 h, 10 µM in data set [3] came to 57.3%.

As for `O=c1[nH]c2ccc(Nc3ncnc4c3ccn4Cc3ccc4c(c3)OCO4)cc2[nH]1`, the inhibition at 10 µM in data set [4] was found to be 56.3%. The viability at 24 h, 10 µM in data set [3] is 89.3%.

Take `O=c1[nH]c2ccc(Nc3ncnc4c3ccn4Cc3cc(F)cc(Cl)c3)cc2[nH]1`: in data set [4], the inhibition at 10 µM came to 45.7%. Further, the viability at 24 h, 10 µM in data set [3] was 104%.

As for `COc1cc(Cn2ccc3c(Nc4ccc5[nH]c(=O)oc5c4)ncnc32)cc(OC)c1`, the inhibition entry in the data set with BV-2 [2] was “inactive”. For the same molecule, the viability at 24 h, 10 µM in data set [3] was 59.3%.

Regarding `O=c1[nH]c2ccc(Nc3ncnc4c3ccn4Cc3cc(C(F)(F)F)cc(C(F)(F)F)c3)cc2[nH]1`, the inhibition result in the data set on BV-2 [2] is “inactive”. The viability at 24 h, 10 µM in data set [3] is 58.5%.

Consider `COc1cc(Cn2ccc3c(Nc4ccc5cn[nH]c5c4)ncnc32)cc(OC)c1`, for which the inhibition at 10 µM in data set [4] stood at 77.7%. In addition, the viability at 24 h, 10 µM in data set [3] is 118%.

For `O=c1[nH]c2ccc(Nc3ncnc4c3ccn4Cc3cccc4cccnc34)cc2[nH]1`, the inhibition at 10 µM in data set [4] was determined as 43.8%. For the same molecule, the viability at 24 h, 10 µM in data set [3] worked out at 84.7%.

Regarding `O=c1[nH]c2ccc(Nc3ncnc4c3ccn4Cc3c(F)cccc3Cl)cc2[nH]1`, the inhibition entry in the data set on BV-2 [2] was “inactive”. Further, the viability at 24 h, 10 µM in data set [3] came out at 77.2%.

For the molecule `O=c1[nH]c2ccc(Nc3ncnc4c3ccn4Cc3ccc(F)cc3F)cc2[nH]1`, in data set [4], the inhibition at 10 µM was 54.3%. The viability at 24 h, 10 µM in data set [3] was determined as 98.2%.

For `COc1cc([C@H]2OC[C@H]3[C@@H]2CO[C@@H]3c2cc(OC)c(O)c(OC)c2)cc(OC)c1O` [SYRINGARESINOL], in data set [4], the inhibition at 10 µM was 75.6%. Besides, in data set [3], the viability at 24 h, 10 µM was 91%.

In the case of `O=c1[nH]c2ccc(Nc3ncnc4c3ccn4Cc3ccc(Cl)cc3F)cc2[nH]1`, the inhibition entry in the data set on BV-2 [2] is “inactive”. Moreover, in data set [3], the viability at 24 h, 10 µM came out at 72.1%.

Regarding `Fc1ccc(Cn2ccc3c(Nc4ccc5scnc5c4)ncnc32)c(Cl)c1`, the inhibition entry with BV-2 [2] is “inactive”. For the same molecule, the viability at 24 h, 10 µM in data set [3] amounted to 61.7%.

For `COc1cc(Cn2ccc3c(Nc4ccc5scnc5c4)ncnc32)cc(OC)c1`, in the data set with BV-2 [2], the inhibition entry was “inactive”. Moreover, the viability at 24 h, 10 µM in data set [3] worked out at 84.5%.

For the molecule `O=c1[nH]c2ccc(Nc3ncnc4c3cnn4Cc3cccc(Cl)c3F)cc2[nH]1`, the inhibition result in the data set with BV-2 [2] was “inactive”. In addition, in data set [3], the viability at 24 h, 10 µM is 53.3%.

As to `COc1cc(Cn2ccc3c(Nc4ccc5c(c4)CC(=O)N5)ncnc32)cc(OC)c1`, the inhibition result in the data set with BV-2 [2] was “inactive”. Moreover, the viability at 24 h, 10 µM in data set [3] was 53%.

Regarding `Fc1ccc(Cn2ccc3c(Nc4ccc5cn[nH]c5c4)ncnc32)c(Cl)c1`, the inhibition result with BV-2 [2] is “inactive”. In addition, the viability at 24 h, 10 µM in data set [3] came to 76.2%.

Take `Fc1ccc(Cn2ccc3c(Nc4ccc5c(c4)OCO5)ncnc32)c(Cl)c1`: the inhibition at 10 µM in data set [4] came to 46.8%. Moreover, the viability at 24 h, 10 µM in data set [3] was found to be 96.9%.

As for `COc1cc(Cn2ccc3c(Nc4ccc5c(c4)OCO5)ncnc32)cc(OC)c1`, the inhibition at 10 µM in data set [4] worked out at 70.2%. For the same molecule, the viability at 24 h, 10 µM in data set [3] was determined as 93.2%.

Take `COc1cc(Cn2ccc3c(Nc4ccc5c(cnn5C)c4)ncnc32)cc(OC)c1`: the inhibition at 10 µM in data set [4] was 63.8%. Further, the viability at 24 h, 10 µM in data set [3] stood at 62.5%.

Turning to `Cc1ccc(Cn2ccc3c(Nc4ccc5[nH]c(=O)[nH]c5c4)ncnc32)cc1`, the inhibition result in the data set on BV-2 [2] is “inactive”. Further, the viability at 24 h, 10 µM in data set [3] was 77.2%.

Turning to `O=c1[nH]c2ccc(Nc3ncnc4c3ccn4Cc3ccc(Cl)cc3)cc2[nH]1`, the inhibition at 10 µM in data set [4] came out at 71.3%. In data set [3], the viability at 24 h, 10 µM is 91.7%.

For the molecule `O=c1[nH]c2ccc(Nc3ncnc4c3ccn4Cc3c(Cl)cccc3Cl)cc2[nH]1`, in the data set on BV-2 [2], the inhibition result is “inactive”. The viability at 24 h, 10 µM in data set [3] was 57.6%.

For the molecule `COc1ccc(Cn2ccc3c(Nc4ccc5[nH]c(=O)[nH]c5c4)ncnc32)cc1OC`, in the data set with BV-2 [2], the inhibition result is “inactive”. The viability at 24 h, 10 µM in data set [3] is 75.2%.

Take `O=c1[nH]c2ccc(Nc3ncnc4c3ccn4Cc3cccc(F)c3Cl)cc2[nH]1`: the inhibition result in the data set with BV-2 [2] is “inactive”. Besides, the viability at 24 h, 10 µM in data set [3] came out at 42.2%.

Consider `COc1cc(Cn2ccc3c(Nc4ccc5[nH]c(=O)[nH]c5c4)ncnc32)cc(OC)c1`, for which the inhibition at 10 µM in data set [4] amounted to 42.5%. Moreover, in data set [3], the viability at 24 h, 10 µM is 107%.

Consider `O=c1[nH]c2ccc(Nc3ncnc4c3cnn4Cc3cc(Cl)cc(Cl)c3)cc2[nH]1`, for which the inhibition entry with BV-2 [2] is “inactive”. Further, the viability at 24 h, 10 µM in data set [3] came out at 52.2%.

For `O=c1[nH]c2ccc(Nc3ncnc4c3ccn4Cc3ccc(Cl)c(F)c3)cc2[nH]1`, in data set [4], the inhibition at 10 µM amounted to 103%. Also, the viability at 24 h, 10 µM in data set [3] came out at 83.1%.

In the case of `O=c1[nH]c2ccc(Nc3ncnc4c3cnn4Cc3cccc(F)c3Cl)cc2[nH]1`, the inhibition at 10 µM in data set [4] amounted to 96.2%. Besides, the viability at 24 h, 10 µM in data set [3] was 83.2%.

With `O=c1[nH]c2ccc(Nc3ncnc4c3ccn4Cc3ccc(F)cc3Cl)cc2o1`, the inhibition at 10 µM in data set [4] turned out to be 54.3%. Besides, the viability at 24 h, 10 µM in data set [3] came to 85.7%.

Regarding `O=c1[nH]c2ccc(Nc3ncnc4c3ccn4Cc3cccc4ccccc34)cc2[nH]1`, the inhibition entry in the data set on BV-2 [2] is “inactive”. The viability at 24 h, 10 µM in data set [3] is 59.7%.

Take `O=c1[nH]c2ccc(Nc3ncnc4c3ccn4Cc3cc(F)ccc3F)cc2[nH]1`: the inhibition entry in the data set on BV-2 [2] is “inactive”. Further, the viability at 24 h, 10 µM in data set [3] was found to be 50.7%.

`COc1cccc(Cn2ccc3c(Nc4ccc5[nH]c(=O)[nH]c5c4)ncnc32)c1`: in data set [4], the inhibition at 10 µM was 63.8%. The viability at 24 h, 10 µM in data set [3] was 88.5%.

Turning to `Cc1ccccc1Cn1ccc2c(Nc3ccc4[nH]c(=O)[nH]c4c3)ncnc21`, the inhibition at 10 µM in data set [4] came out at 63.5%. The viability at 24 h, 10 µM in data set [3] is 81.8%.

Take `O=C(Cn1ccc2c(Nc3ccc4[nH]c(=O)[nH]c4c3)ncnc21)c1ccccc1`: the inhibition result in the data set with BV-2 [2] was “inactive”. Further, the viability at 24 h, 10 µM in data set [3] was 74.3%.

On to `Cn1ncc2cc(Nc3ncnc4c3ccn4Cc3ccc(F)cc3Cl)ccc21`, for which the inhibition result in the data set with BV-2 [2] was “inactive”. Also, the viability at 24 h, 10 µM in data set [3] came to 79.2%.

Take `O=c1[nH]c2ccc(Nc3ncnc4c3cnn4Cc3cc(F)cc(Cl)c3)cc2[nH]1`: the inhibition at 10 µM in data set [4] worked out at 61.7%. Also, the viability at 24 h, 10 µM in data set [3] is 92.9%.

`COc1ccc2c3c1O[C@H]1C[C@@H](O)C=C[C@@]31CCNC2`: the inhibition at 10 µM in data set [4] worked out at 55.7%. Moreover, the viability at 24 h, 10 µM in data set [3] came out at 91.2%. The outcome with BV-2 [5] was Active.

Turning to `Cc1cccc(Cn2ccc3c(Nc4ccc5[nH]c(=O)[nH]c5c4)ncnc32)c1`, in the data set on BV-2 [2], the inhibition result was “inactive”. In data set [3], the viability at 24 h, 10 µM was found to be 59%.

On to `CCn1cc(C(=O)O)c(=O)c2cc(F)c(N3CCNCC3)nc21` [ENOXACIN], for which, in data set [1], the “log Pe” value is listed as -6.24.

As for `O=c1[nH]c2ccc(Nc3ncnc4c3ccn4Cc3ccc(I)cc3)cc2[nH]1`, the inhibition at 10 µM in data set [4] was 74.5%. Besides, in data set [3], the viability at 24 h, 10 µM was 98.7%.

Take `O=c1[nH]c2ccc(Nc3ncnc4c3cnn4Cc3ccc(Cl)cc3F)cc2[nH]1`: the inhibition entry with BV-2 [2] is “inactive”. Further, in data set [3], the viability at 24 h, 10 µM was 57.8%.

Regarding `O=c1[nH]c2ccc(Nc3ncnc4c3ccn4Cc3cccc(Cl)c3F)cc2[nH]1`, the inhibition entry in the data set with BV-2 [2] is “inactive”. In data set [3], the viability at 24 h, 10 µM was 73%.

With `O=c1[nH]c2ccc(Nc3ncnc4c3ccn4Cc3ccc(F)cc3Cl)cc2[nH]1`, the inhibition at 10 µM in data set [4] amounted to 78.5%. For the same molecule, the viability at 24 h, 10 µM in data set [3] was determined as 84.5%.

For `O=C(Cn1ccc2c(Nc3ccc4[nH]c(=O)[nH]c4c3)ncnc21)N1CCOCC1`, the inhibition at 10 µM in data set [4] was determined as 54.3%. In addition, the viability at 24 h, 10 µM in data set [3] came out at 102%.

For `O=C1Cc2cc(Nc3ncnc4c3ccn4Cc3ccc(F)cc3Cl)ccc2N1`, the inhibition entry in the data set on BV-2 [2] is “inactive”. In addition, in data set [3], the viability at 24 h, 10 µM is 56.6%.

For the molecule `COc1ccc(Cn2ccc3c(Nc4ccc5[nH]c(=O)[nH]c5c4)ncnc32)cc1`, in data set [4], the inhibition at 10 µM came to 76.6%. The viability at 24 h, 10 µM in data set [3] was determined as 115%.
